Results taken from US20240261296A1, “THERAPEUTIC MODALITIES FOR INHIBITING PANCREATIC BETA CELL IMPAIRMENT AND TREATING DIABETES” (Hadasit Medical Research Serices & Development Ltd., priority 2021, published 2024).

What was measured:
MIN6 cells [1] = assay: rescue of MIN6 cells from palmitate-induced apoptosis (cleaved caspase 3 western blot; FACS SubG1); assay type: cell-based, murine; settings: palmitic acid 0.3 mM, 48 hours; compared to L-798106
Method: (§1) Islet and cell culture: The pancreatic β-cell line MIN6, which is a clonal murine insulin-secreting line, was cultured in DMEM (Biological Industries, Beit Haemek, Israel) supplemented with 11 mM Glucose, 2 mM glutamine, 15% heat-inactivated fetal calf serum (FCS), 100 U/ml penicillin, 100 µg/ml streptomycin and 61 μM β-mercaptoethanol. Human islets were obtained from the European Consortium for Islet Transplantation (ECIT) at the San Raffaele Hospital and from the Niguarda Hospital, (Milan, Italy) and cultured in CMRL-1066 media (Biological Industries, Beit HaEmek, Israel) supplemented with 10% FCS, 5.5 mM glucose, 2 mM L-Glutamine, 100 U/ml penicillin, 100 μg/ml streptomycin and 150 μg/ml gentamycin. Palmitate was added to 1% FCS and 0.5% defatted BSA (Roche, Germany).
Western blotting: Cells were lyzed in Laemmli protein sample buffer, separated on SDS-polyacrylamide gel, and transferred to […] nitrocellulose membranes (Schleicher and Schuell, Dassel, Germany). After blocking in 5% dried skimmed milk, the membranes were first incubated with the appropriate antibodies against: cleaved caspase-3 (Asp175) (Cell Signaling Technology Danvers, MA) and α-tubulin (Sigma-Aldrich.) and then with horseradish peroxidase conjugated anti-rabbit or anti-mouse IgG, followed by analysis with an enhanced chemiluminescence detection kit (Biological Industries, Israel).
The remaining compounds were screened for the ability to rescue β-cells from palmitate-induced apoptosis as compared to the commercial EP3 antagonist L-798106 by measuring the levels of the cleaved caspase 3 apoptotic marker, using Western Blot analysis (FIG. 1). […] Cell extracts were analyzed by western blotting for the presence of cleaved caspase 3 as compared to α-Tubulin.
The ability of the compounds to rescue β-cells from apoptosis was also evaluated using FACS analysis and measuring the SubG1 population (FIG. 2). […] Collected cells were analyzed by FACS and the SubG1 fractions (representing apoptotic cell products or components were compared. The average of 4-6 independent experiments is presented in FIG. 2.

INS1 and INS2 genes = assay: insulin gene expression in palmitate-treated MIN6 cells (real-time PCR); assay type: cell-based, murine; settings: 10 μM, in the presence of palmitate
Method: Real-time PCR: Total RNA from MIN6 cells or islets was extracted using TRIzol (Invitrogen, Carlsbad, CA, USA) and 2 μg of total RNA was converted to cDNA using SuperScript® III Reverse Transcriptase (Invitrogen, Carlsbad, CA, USA). 2.5-5 ng cDNA was used for each real-time PCR reaction. Real-time reaction was performed using Platinum SYBR Green qPCR SuperMix-UDG with ROX reference dye (Applied Biosystems). The primers used were as follows: GAPDH forward (F): […]; GAPDH reverse (R): […]; Ins1 (F): AACCCCCAGCCCTTAGTGA; (R): […]; Ins2 (F): […]; (R): […] (SEQ ID Nos: 1-6, respectively). Additional primers used as controls are directed to HPRT, as follows: HPRT (F): […] HPRT (R) […] (SEQ ID Nos: 7-8, respectively).
PA decreases the expression of β-cell specific genes, including insulin. The effect of the selected compounds on insulin gene expression was further tested in MIN6 cells. Rodent β-cells have two insulin genes (INS1 and INS2). MIN6 cells were exposed to C5 or L-798106 (10 μM) in the presence or absence of palmitic acid, and mRNAs insulin levels were measured by real-time PCR. FIGS. 6A-6B present the expression levels of INS1 and INS2 genes, respectively, normalized to GAPDH expression levels. Data of n=3±SEM is presented.

MIN6 cells [2] = assay: Caspase 3/7 enzymatic activity in palmitic acid-treated MIN6 cells; assay type: cell-based, murine; settings: 250 nM, 24 h
Method: (§2) Next, the ability of the compounds to rescue human islet cells from palmitate-induced apoptosis was determined. To this end, the Caspase-Glo 3/7 assay reagent (Promega) was used for caspase 3/7 detection in palmitic acid-treated cells. The reagent provides a proluminescent caspase-3/7 substrate, which contains the tetrapeptide sequence DEVD, in combination with luciferase and a cell-lysing agent. The addition of the reagent directly to the wells results in cell lysis, followed by caspase cleavage of the DEVD substrate, and the generation of luminescence.
Following the initial screening results, compounds C13 and C5 were tested at different doses for their ability to reduce palmitate-induced apoptosis. To this end, MIN6 cells were exposed to 250 nM of the tested compounds in the presence of palmitic acid (PA) for 24 h, or to PA alone. Caspase 3/7 enzymatic activity was measured as described in Example 3, and the results, presented in FIG. 4 represent the average ±SEM of triplicates or quadruplicates.

human islet cells = assay: Caspase-Glo 3/7 assay in palmitic acid-treated human islets; assay type: cell-based; parameters: rescuing human islet cells from apoptosis, compared with L-798106 / inhibiting or reversing palmitate-induced apoptosis in pancreatic islets of both human donors / inhibition of palmitate-induced apoptosis in human islets, donor 1: dose or concentration left out as unconfirmed; settings: for rescuing human islet cells from apoptosis, compared with L-798106: two human donors
Method: as §1, §2
Accordingly, human islets from two donors were exposed to the various compounds or to L-798106 for 48 h in the presence of palmitic acid, and the bioluminescence was measured as compared to control cells. FIGS. 3A-3B show the results of the treatment with […] of the compounds in two human donors (FIG. 3A—donor 1, FIG. 3B—donor 2). PA: Palmitate; L: L-798106; RLU: Relative Light Units. The results are average of triplicates or quadruplicates ±SEM (except in islets from L-798106 treated donor 2, representing duplicates).
Next, various concentrations of the compounds were tested in human pancreatic islet cells. Cells obtained from the first healthy donor (donor 1) were incubated in the presence or absence of PA with C13, C5 or L-798106 (L) at concentrations of 5, 2.5 and 0.5 μM. Caspase 3/7 enzymatic activity was measured as described above. The enzymatic activity is presented in FIG. 5A for 5 μM, FIG. 5B for 2.5 μM and FIG. 5C for 0.5 μM as relative light units (RLU/μg protein) and the graphs represent the average of n=3-4.

Row | SMILES | rescue of β-cells from palmitate-induced apoptosis (cleaved caspase 3; SubG1 population) (MIN6 cells [1]) | effect on insulin gene expression relative to L-798106 (INS1 and INS2 genes) | insulin gene expression (INS1, INS2) normalized to GAPDH (INS1 and INS2 genes) | palmitate-induced apoptosis (caspase 3/7 activity) (MIN6 cells [2]) | inhibition of palmitate-induced apoptosis in human islets, compared with L-798106 (human islet cells; donor 1, 5, 2.5 and 0.5 μM) | rescuing human islet cells from apoptosis, compared with L-798106 (human islet cells; palmitic acid, 48 h) | efficacy at all tested concentrations (human islet cells; donor 1, 5, 2.5 and 0.5 μM) | inhibiting or reversing palmitate-induced apoptosis in pancreatic islets of both human donors (human islet cells; palmitic acid, 48 h)
1 | CC[C@H](C)c1ccc(S(=O)(=O)Nc2ccccc2C(=O)N2C[C@@H](C)O[C@@H](C)C2)cc1 [Compound C5, 4-((S)-sec-butyl)-N-(2-((2S,6R)-2,6-dimethylmorpholine-4-carbonyl)phenyl)benzenesulfonamide] | exceptionally high efficacy | appeared to be more significant | enhanced insulin gene expression | significantly reduced | to a greater extent than L-798106 | to a greater extent than the EP3 antagonist L-798106 |  | 
2 | CC[C@@H]1CC[C@H](C)N1C(=O)c1cccc(NS(=O)(=O)c2ccc(C)c(F)c2)c1 [Compound C13, N-(3-((2R,5S)-2-ethyl-5-methylpyrrolidine-1-carbonyl)phenyl)-3-fluoro-4-methylbenzenesulfonamide] | exceptionally high efficacy |  |  | significantly reduced | to a greater extent than L-798106 | to a greater extent than the EP3 antagonist L-798106 | remarkable efficacy | particularly high efficacy
3 | COc1ccc(Br)cc1S(=O)(=O)NC(=O)/C=C/c1ccccc1Cc1ccc2ccccc2c1 [Compound L-798106, (2E)-N-[(5-bromo-2-methoxyphenyl)sulfonyl]-3-[2-(2-naphthalenylmethyl)phenyl]-2-propenamide, reference compound] |  |  | enhanced insulin gene expression |  |  |  |  | 
